Experimental data published in patent US20210361563A1, “TRANSDERMAL SYSTEM FOR SYNERGISTIC IMMUNE-CHEMOTHERAPY USING MICRONEEDLES AND METHOD OF TREATMENT THEREOF” (THE UNIVERSITY OF HONG KONG, priority 2020, published 2021).

Key:
[1] = system: SCC VII-luc tumor homograft; assay: Ki-67 IHC cell proliferation in tumor tissue sections; format: in vivo, C3H/HeJ mice
Description: Cell proliferation was further confirmed through IHC in formalin-fixed paraffin-embedded tumor tissue sections. […] Tumor infiltrating lymphocytes (TILs) like CD4+ cells and CD8+ infiltrated the tumor tissue and started to proliferate after aPD-1 treatment. […] TILs attacked the tumor tissues and killed the tumor cells afterwards. Whether these proliferated cells were T-cells or tumor cells were further confirmed through flow cytometry. Additionally, tumor cell apoptosis was assessed through in situ TUNEL assay (FIG. 4B & 4D). […] In sum, aPD-1-CDDP-NPs MN can not only increase the amount of activated T-cells but also kill tumor cells.
(§1) Male and female C3H/HeJ mice were purchased from The Jackson Laboratory (Bar Harbor, Me., USA) and bred in the Laboratory Animal Unit in the University of Hong Kong. All animal procedures were performed in accordance with a protocol approved by the Committee on the Used of Live Animals in Teaching and Research (CULATR, HKU). […] The tumor size was monitored by both the bioluminescence signals and the Vernier calipers every 3 days. Tumor volume was calculated as 0.5× long diameter×short diameter^2. Tumor volume and tumor wet weight were also measured after sacrifice. Tumor proliferation was determined in sliced tumor tissues using anti-Ki67 (Abcam, USA) following the IHC protocol.

[2] = H&E staining of liver, lung, kidney and spleen; format: in vivo, C3H/HeJ mice
Source text: Liver, lung, kidney and spleen of each group were collected after sacrifice for hematoxylin and eosin (H&E) staining to analyze whether drugs induced toxicity to these organs (FIG. 6C).
The livers, kidneys, spleens and lungs were collected after sacrifice and fixed in 4% PFA. After embedding into paraffin, the tissues were sliced into 5-μm sections for H&E staining. Images of the tissues were collected using a polarized light microscope (ECLIPSE LV100POL, Japan). The BUN and total IgG level in the serum were detected using a urea nitrogen detection kit (Thermo Fisher Scientific, USA) and a mouse IgG total ELISA kit (ThermoFisher Scientific, USA) respectively.

IFN-γ, TNF-α = assay: Serum IFN-γ and TNF-α ELISA; format: in vivo, C3H/HeJ mice
Description: (§2) To evaluate T-cell responses and the immune profile, tumor tissues and blood were harvested after sacrifice. aPD-1, being an ICB, could be a positive regulator of TILs. The infiltration of CD4+ T-cells and CD8+ T-cells into tumor cells was assessed through flow cytometry. […] To reveal the cellular mechanism in vivo, the production of IFN-γ and TNF-α was determined using ELISA kit in mice serum. […] (FIG. 5E)
Blood was collected from mice and maintained in anticoagulative tubes ([…]® Blood Collection Tubes, K3E K3EDTA, Greiner Bio-One International, Australia). Blood was centrifuged at 1500 g for 10 minutes at 4° C., then plasma was transferred into a new Eppendorf. After centrifugation at 2000 g for 15 mins at 4° C., the supernatant was collected to obtain the serum of mice. IFN-γ and TNF-α in the serum were detected using Mouse IFN-γ ELISA kit (Thermo Fisher Scientific, USA) and Mouse TNF-α ELISA kit (Thermo Fisher Scientific, USA), respectively.

[3] = system: SCC VII-luc tumor homograft; assay: Antitumor efficiency in immunocompetent murine tumor homograft model; format: in vivo, C3H/HeJ mice
Source text: We further investigated tumor inhibition on an immunocompetent murine tumor homograft model. SCC VII cell lines were subcutaneously inoculated into the right flank of C3H/HeJ mice to obtain a superficial tumor. […] Tumor volume was monitored using a Vernier caliper before the treatment and 3 days after each treatment. Furthermore, tumor growth was double confirmed using bioluminescent images (FIG. 3A). […] The ineffective therapeutic role of aPD-1, however, may be due to the following reasons. First, the renovated T cells may be too exhausted that they display impaired effector function with limited proliferative potential ^26. Second, cancer antigens may be “masked”; therefore, they cannot be identified by T-cells ^27. Third, the tumor microenvironment may contain multiple inhibitory immune cells, such as tumor-associated macrophages, which overwhelm the T-cells into have adverse effects ^28. Although the exact reason was unclear, the animal model in this study was unresponsive to systemic aPD-1 immunotherapy.
as §1, with “HKU). An immunocompetent murine tumor homograft model was established by injecting 1×10^6 SCC VII-luc cells suspended in 100 μL Hanks' balanced salt solution (HBSS, Gibco, USA) on the right flank of the mouse. […] The treatments were administered once the tumor volume reached 10 mm^3 and each treatment was administered every 3 days and lasted for 3 cycles.” for “HKU).”

cell lines = assay: Cell apoptosis (APO-BrdU TUNEL) and cell cycle (PI) by flow cytometry; format: cell-based; settings: Pt 100 μM, 4 h
Description: A large number of 3hydroxyl ends appeared when DNA strands became fragmented, and they were labeled with BrdUTP and terminal deoxynucleotidyl transferase (TdT) using the TUNEL technique. After DNA incorporation, BrdU could be detected through anti-BrdU antibody.
Cell apoptosis was detected using flow cytometry with the APO-BrdU™ tranferase dUTP nick end laveling (TUNEL) Assay Kit (Thermo Fisher Scientific, USA), and the phase of the cell cycle was determined using propidium iodide (PI, Thermo Fisher Scientific, USA) following the manufacturer's protocol. Cells were fixed with 1% paraformaldehyde (PFA) or ethanol before staining, and they were analyzed through flow cytometry (BD FACSVerse™, BD, Franklin Lake, N.J., USA) immediately after staining. All data were analyzed using FlowJo (7.6.1, BD, USA).

[4] = system: CD4+ and CD8+ T-cells in tumor; assay: T-cell infiltration in tumor tissues by flow cytometry; format: in vivo, C3H/HeJ mice; settings: tumor tissue after sacrifice
Description: as §2
A piece of tumor was collected from each mouse for flow cytometry. After execution, the tissues were rinsed with PBS and maintained in PBS at 4° C. The tumor tissues were sliced into very small pieces and sieved through 100 μm cell strainer (BD Falcon, USA). Subsequently, the sliced tissue was pressed using the plunger end of a syringe. The supernatant was decanted and the pellet resuspended the pellet in Flow Cytometry Staining Buffer (PBS plus 10% FBS). The solution was separated into two Eppendorf tubes with a volume of 300 μL, then 1 μL primary antibody was added into one of the two tubes individually. The three primary antibodies used were rabbit anti-CD4 (Abcam, Cambridge, Mass., USA), rat anti-CD8 (Abcam, USA), and mouse anti-foxp3 (Abcam,USA). […]

N.N.[Cl][Pt][Cl] [CDDP, cis-Diammineplatinum(II)dichloride]
cells continuing to proliferate (Ki-67) [1]: 25%
kidney histology (H&E) ([2]; kidney): severe toxic tubular necrosis
liver histology (H&E) ([2]; liver): some alterations were found in the liver parenchyma
lung histology (H&E) ([2]; lung): diffuse damage of the pulmonary alveoli and severe inflammatory infiltration
spleen histology (H&E) ([2]; spleen): white pulp was evidently reduced
IFN-γ level in serum (IFN-γ, TNF-α): lower IFN-γ levels than other five groups
antitumor effect (in words) ([3]; SCC VII homograft, three treatments): limited treatment efficacy
tumor volume compared to control group (in words) ([3]; mouse, in vivo): no difference
tumor weight compared to control group (in words) ([3]; mouse, in vivo): significantly reduced
cell apoptosis (cell lines): 2.79%
CD8+ T-cells among tumor cells [4]: 4.478%
